Measurements published in patent publication US20230150952A1, “TYPE 2 RYANODINE RECEPTOR ACTIVITY INHIBITOR” (JUNTENDO EDUCATIONAL FOUNDATION, priority 2020, published 2023).

Test system: mouse having RyR2 I4093V mutation
Test: electrocardiogram of RyR2 mutation-harboring mouse before and after intraperitoneal administration
Format: in vivo
Details: 0.3 mg/kg intraperitoneal; 5-15 minutes after administration; FIG. 2
Excerpt: In Riken BRC, male mice administered with N-ethyl-N-nitrosourea (ENU) were crossed with normal wild type females to obtain child mice (First generation: G1). These G1 mice were subjected to systematic phenotypic screening. […] As a result, a mouse having RyR2 I4093V mutation (RyR2 c.12277A>G (NM_023868.2) p.I4093V (NP_076357.2)) was found. The mouse was backcrossed with a normal wild type mouse (8 generations or more). As a result, mice conceivably having a mutation of RyR2 I4093V alone were obtained.
Compound 57 shown in Table 10 was dissolved in saline (0.9% aqueous NaCl solution) to prepare a 0.03-0.1 mg/mL solution containing compound 57. • (3) Measurement of Electrocardiogram of RyR2 Mutation-Harboring Mouse and Administration of Drug
The aforementioned mutant mice of 4-5 months old were subjected to anesthesia induction with 2% isoflurane. While maintaining the anesthetic state with 1% isoflurane, electrodes for electrocardiogram were attached to four limbs and electrocardiographical monitoring was continuously carried out. Before drug administration, electrocardiographical monitoring was carried out for 10 minutes. Then, the solution containing compound 57 prepared above was intraperitoneally injected so as to have a concentration of 0.3 mg/kg or 1 mg/kg. The electrocardiogram was recorded for further 15 minutes.
The time during which successive bigeminal pulse, trigeminal pulse or ventricular tachycardia (regarded as arrhythmia) occurred during 5-15 minutes after administration of compound 57, were summed up per individual and the ratio of time when arrhythmia occurs was obtained.

`CN(C(=O)Cn1nnc(-c2cc(F)cc(F)c2)n1)c1ccc(F)cc1` [Compound 57] was tested, and the “occurrence of arrhythmia (ratio of time when arrhythmia occurs)” value was “low”.

Same assay, conditions: 0.3 mg/kg intraperitoneal; RyR2 I4093V mice; FIG. 1

In the case of `CN(C(=O)Cn1nnc(-c2cc(F)cc(F)c2)n1)c1ccc(F)cc1` [Compound 57], the “ECG (bidirectional ventricular tachycardia before administration)” value is reported as “went back to normal”.

Same assay, conditions: 1 mg/kg intraperitoneal; 5-15 minutes after administration; FIG. 2

`CN(C(=O)Cn1nnc(-c2cc(F)cc(F)c2)n1)c1ccc(F)cc1` [Compound 57] was tested, and the “occurrence of arrhythmia (ratio of time when arrhythmia occurs)” value was “low”.

Molecular target: type 2 ryanodine receptor (Mus musculus, UniProt E9Q401)
Sequence (E9Q401 whole entry): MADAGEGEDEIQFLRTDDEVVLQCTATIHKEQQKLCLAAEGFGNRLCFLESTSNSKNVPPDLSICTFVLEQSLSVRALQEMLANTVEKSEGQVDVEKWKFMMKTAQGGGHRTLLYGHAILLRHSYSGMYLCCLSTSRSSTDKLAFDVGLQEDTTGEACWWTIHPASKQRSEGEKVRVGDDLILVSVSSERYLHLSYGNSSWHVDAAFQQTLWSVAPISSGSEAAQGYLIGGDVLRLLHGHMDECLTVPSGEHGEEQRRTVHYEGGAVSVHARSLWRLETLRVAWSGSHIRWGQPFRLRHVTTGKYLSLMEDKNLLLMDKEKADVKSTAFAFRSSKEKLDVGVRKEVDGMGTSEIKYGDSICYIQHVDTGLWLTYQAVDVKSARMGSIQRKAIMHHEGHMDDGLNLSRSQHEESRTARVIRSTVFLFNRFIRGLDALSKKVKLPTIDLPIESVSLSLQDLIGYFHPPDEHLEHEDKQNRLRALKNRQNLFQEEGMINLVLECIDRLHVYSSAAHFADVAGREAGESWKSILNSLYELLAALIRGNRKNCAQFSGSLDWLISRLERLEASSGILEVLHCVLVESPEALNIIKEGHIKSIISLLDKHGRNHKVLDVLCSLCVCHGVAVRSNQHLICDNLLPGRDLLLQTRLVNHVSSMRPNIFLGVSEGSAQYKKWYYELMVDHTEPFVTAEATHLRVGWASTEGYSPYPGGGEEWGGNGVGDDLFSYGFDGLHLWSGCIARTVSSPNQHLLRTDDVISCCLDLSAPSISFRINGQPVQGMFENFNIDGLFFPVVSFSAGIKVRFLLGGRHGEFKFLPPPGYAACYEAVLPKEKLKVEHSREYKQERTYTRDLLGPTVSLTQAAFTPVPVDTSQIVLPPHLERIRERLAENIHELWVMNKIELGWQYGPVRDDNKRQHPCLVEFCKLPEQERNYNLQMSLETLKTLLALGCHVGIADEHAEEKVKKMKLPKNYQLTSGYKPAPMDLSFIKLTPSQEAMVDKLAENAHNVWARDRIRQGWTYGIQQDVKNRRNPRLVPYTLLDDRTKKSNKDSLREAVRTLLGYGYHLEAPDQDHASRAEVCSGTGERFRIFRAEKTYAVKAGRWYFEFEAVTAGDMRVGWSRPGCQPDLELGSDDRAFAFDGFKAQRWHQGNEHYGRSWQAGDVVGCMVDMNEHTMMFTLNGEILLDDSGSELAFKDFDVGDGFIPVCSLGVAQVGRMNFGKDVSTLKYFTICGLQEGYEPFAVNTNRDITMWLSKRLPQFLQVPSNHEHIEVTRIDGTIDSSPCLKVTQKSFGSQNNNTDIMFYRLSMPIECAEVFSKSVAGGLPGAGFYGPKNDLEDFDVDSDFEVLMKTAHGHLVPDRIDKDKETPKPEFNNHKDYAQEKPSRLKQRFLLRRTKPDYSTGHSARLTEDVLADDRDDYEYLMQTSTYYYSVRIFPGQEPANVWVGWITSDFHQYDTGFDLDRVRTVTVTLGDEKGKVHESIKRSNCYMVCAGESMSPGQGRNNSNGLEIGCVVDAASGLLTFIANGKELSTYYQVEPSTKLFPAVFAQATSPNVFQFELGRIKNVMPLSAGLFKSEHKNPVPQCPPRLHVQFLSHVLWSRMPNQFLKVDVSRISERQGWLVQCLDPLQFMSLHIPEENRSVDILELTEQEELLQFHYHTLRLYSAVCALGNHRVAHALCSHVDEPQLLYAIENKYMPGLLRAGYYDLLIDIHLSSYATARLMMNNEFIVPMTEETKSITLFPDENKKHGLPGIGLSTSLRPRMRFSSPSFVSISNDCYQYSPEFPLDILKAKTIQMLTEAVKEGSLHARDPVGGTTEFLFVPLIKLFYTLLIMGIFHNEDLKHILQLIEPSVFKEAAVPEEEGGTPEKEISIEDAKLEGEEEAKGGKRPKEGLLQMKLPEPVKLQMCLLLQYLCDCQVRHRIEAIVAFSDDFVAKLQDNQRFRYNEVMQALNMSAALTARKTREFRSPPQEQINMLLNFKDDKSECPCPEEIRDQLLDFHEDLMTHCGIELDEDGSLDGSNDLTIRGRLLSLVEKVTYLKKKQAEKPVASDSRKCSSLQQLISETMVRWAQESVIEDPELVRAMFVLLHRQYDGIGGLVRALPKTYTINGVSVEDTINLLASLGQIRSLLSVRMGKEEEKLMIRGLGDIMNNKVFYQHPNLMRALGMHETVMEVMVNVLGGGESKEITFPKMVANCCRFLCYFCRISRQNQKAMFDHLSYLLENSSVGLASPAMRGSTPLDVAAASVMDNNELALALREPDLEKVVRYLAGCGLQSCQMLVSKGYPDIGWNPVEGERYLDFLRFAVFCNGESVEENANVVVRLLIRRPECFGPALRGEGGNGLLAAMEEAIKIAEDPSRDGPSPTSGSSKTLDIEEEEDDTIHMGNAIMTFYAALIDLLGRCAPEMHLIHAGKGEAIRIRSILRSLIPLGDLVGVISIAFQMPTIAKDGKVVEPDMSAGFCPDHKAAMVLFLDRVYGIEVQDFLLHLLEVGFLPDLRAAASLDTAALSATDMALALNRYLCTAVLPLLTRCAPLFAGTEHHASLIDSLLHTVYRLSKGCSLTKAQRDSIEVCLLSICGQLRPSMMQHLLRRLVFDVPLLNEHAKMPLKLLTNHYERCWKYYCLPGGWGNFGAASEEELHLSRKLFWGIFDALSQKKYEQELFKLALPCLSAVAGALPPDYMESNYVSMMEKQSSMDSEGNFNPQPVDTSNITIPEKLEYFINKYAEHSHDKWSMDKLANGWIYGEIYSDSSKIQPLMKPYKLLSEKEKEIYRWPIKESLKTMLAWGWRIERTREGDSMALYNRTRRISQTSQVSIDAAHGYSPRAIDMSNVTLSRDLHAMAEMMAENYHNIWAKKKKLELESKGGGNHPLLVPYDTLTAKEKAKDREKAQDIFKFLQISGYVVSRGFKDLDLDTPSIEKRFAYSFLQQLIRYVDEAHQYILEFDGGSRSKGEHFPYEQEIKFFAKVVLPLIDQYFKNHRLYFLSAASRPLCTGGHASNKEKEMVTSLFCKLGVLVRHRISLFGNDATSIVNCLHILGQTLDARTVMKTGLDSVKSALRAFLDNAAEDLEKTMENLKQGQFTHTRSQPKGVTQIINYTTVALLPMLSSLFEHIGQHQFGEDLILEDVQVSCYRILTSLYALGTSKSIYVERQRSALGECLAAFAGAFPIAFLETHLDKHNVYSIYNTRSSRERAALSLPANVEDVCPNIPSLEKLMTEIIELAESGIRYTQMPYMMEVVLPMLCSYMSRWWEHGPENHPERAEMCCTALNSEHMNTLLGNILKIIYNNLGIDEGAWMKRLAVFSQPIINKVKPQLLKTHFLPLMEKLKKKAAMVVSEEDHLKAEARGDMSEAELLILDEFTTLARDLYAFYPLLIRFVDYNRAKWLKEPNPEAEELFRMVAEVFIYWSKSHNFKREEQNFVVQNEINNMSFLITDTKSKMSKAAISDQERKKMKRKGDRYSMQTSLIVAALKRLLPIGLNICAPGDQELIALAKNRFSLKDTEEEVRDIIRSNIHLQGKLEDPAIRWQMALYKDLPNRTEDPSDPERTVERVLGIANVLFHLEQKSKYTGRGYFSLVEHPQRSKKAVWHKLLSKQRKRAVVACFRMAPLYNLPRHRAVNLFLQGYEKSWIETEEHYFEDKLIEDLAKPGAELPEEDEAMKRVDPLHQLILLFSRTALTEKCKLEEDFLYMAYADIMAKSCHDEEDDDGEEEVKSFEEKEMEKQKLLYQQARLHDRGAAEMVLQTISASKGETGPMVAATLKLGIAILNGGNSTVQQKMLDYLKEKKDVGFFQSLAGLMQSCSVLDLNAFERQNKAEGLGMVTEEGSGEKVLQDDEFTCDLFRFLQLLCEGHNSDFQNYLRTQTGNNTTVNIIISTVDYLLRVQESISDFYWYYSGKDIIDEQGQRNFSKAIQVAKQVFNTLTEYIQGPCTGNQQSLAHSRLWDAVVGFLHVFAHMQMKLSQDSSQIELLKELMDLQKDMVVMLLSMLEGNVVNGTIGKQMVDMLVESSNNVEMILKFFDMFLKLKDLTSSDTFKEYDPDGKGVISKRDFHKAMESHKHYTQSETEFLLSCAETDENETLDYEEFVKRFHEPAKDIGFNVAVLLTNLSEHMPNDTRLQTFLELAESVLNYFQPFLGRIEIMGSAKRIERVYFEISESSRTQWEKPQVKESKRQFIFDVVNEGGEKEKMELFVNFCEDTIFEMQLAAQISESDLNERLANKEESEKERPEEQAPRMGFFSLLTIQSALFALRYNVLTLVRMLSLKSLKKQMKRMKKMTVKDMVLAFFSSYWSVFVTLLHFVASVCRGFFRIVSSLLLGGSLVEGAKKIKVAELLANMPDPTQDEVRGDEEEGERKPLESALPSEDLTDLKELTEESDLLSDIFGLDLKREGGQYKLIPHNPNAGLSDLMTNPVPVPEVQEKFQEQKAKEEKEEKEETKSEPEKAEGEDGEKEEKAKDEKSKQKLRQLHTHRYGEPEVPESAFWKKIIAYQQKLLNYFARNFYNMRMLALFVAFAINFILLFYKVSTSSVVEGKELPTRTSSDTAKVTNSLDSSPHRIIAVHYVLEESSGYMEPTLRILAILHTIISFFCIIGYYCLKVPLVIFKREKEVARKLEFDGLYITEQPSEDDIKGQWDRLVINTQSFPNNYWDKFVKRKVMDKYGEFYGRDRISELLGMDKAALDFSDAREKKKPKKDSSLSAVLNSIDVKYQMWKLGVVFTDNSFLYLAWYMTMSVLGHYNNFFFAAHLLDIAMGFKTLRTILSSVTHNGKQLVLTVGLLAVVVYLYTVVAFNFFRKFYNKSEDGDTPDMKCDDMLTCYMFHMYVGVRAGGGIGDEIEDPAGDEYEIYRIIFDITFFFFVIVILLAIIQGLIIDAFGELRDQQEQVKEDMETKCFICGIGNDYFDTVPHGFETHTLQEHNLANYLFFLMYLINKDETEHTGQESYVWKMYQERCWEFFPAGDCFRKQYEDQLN
Test: type 2 ryanodine receptor activity inhibitory effect: endoplasmic reticulum Ca2+ (R-CEPIA1er fluorescence) in RyR-expressing HEK293 cells
Format: cell-based
Details: final concentration 10^-9 to 10^-4 M; Hill equation fit; ER Ca2+ fluorescence in HEK293 cells
Protocol: The EC50 value of each of the compounds shown in Table 13 with respect to the type 2 ryanodine receptor activity inhibitory effect, was measured in accordance with the following procedure.
cDNA of RyR2 was cloned from the heart muscle of a mouse by a PCR method and introduced into an expression vector (pcDNA5/FRT/TO) for Flp-In T-REX having hygromycin resistance. The vector is a tetracycline-inducible expression (Tet-On) vector and induces expression of RyR in the presence of doxycycline.
Also, R-CEPIA1er described in Nat. Commun., 2014, 5: 4153 was introduced into a neomycin resistant expression vector, pCMV/myc/ER. This vector constantly expresses R-CEPIA1er.
As HEK293 cells, Flp-In T-REX 293 cells corresponding to the Tet-On inducible system were prepared. The cells were cultured in a CO2 incubator at 37° C.
(§1) A pathogenic mutant-type RyR gene was introduced into Flp-In T-REX 293 cells by a lipofection method. The cells were cultured in a medium containing hygromycin for 10 to 14 days to establish a pathogenic mutant RyR stably expressing strain. Into the pathogenic mutant RyR stably expressing strain, an R-CEPIA1er expression vector was introduced by a lipofection method. The strain was cultured in a medium containing G418 to establish a stable dual expression strain expressing a pathogenic mutant-type RyR gene and R-CEPIA1er.
as §1, with “A wild-type” for “A pathogenic mutant-type”, “a” for “a pathogenic mutant”, “the” for “the pathogenic mutant”, “a wild-type” for “a pathogenic mutant-type”
The cultured cells expressing a pathogenic mutant RyR and R-CEPIA1er and the cultured cells expressing wild type RyR and R-CEPIA1er were separately cultured in plastic dishes at 37° C. for 24 hours. Then, the medium was exchanged with a medium containing doxycycline and the cells were further cultured for 24 hours. Fluorescence measurement was carried out by use of FlexStation. R-CEPIA1er was excited at 560 nm to acquire fluorescence at 610 nm. Fluorescence was acquired every 10 seconds for 300 seconds. The compounds shown in Table 13 each were added 60 seconds after initiation, and Ca^2+ concentration in the fluorescent endoplasmic reticulum was measured.
Inhibitory effects of the compounds on type 2 ryanodine receptor activity shown in Table 13 each were measured in the range of a final concentration of 10^−9 to 10^−4 M by the methods above. Based on the measurement results, a dose-response curve approximating the Hill equation was obtained by the least squares method. In this manner, EC50 values were calculated.

First: CN(C(=O)Cn1nnc(-c2ccccc2)n1)c1ccccc1 [Compound 35]
Second: CCN(C(=O)Cn1nnc(-c2ccccc2)n1)c1ccccc1 [Compound 58]
The EC50 of the first is 8.1-fold lower: 676 nM for the first, 5460 nM for the second.

Going from `Cc1cccc(N(C)C(=O)Cn2nnc(-c3ccccc3)n2)c1` [Compound 37] to `COc1cccc(N(C)C(=O)Cn2nnc(-c3ccccc3)n2)c1` [Compound 40], the EC50 rises from 606 nM to 8310 nM (14-fold).

Going from `Cc1ccc(N(C)C(=O)Cn2nnc(-c3ccccc3)n2)cc1` [Compound 38] to `COc1ccc(N(C)C(=O)Cn2nnc(-c3ccccc3)n2)cc1` [Compound 41], the EC50 falls from 2770 nM to 154 nM (18-fold). The second is the more potent here.

Compared with `COc1ccccc1-c1nnn(CC(=O)N(C)c2ccccc2)n1` [Compound 45], `COc1cccc(-c2nnn(CC(=O)N(C)c3ccccc3)n2)c1` [Compound 46] is 23-fold lower in EC50: 3370 nM for the first, 147 nM for the second. The second is the more potent here.

`COc1ccc(-c2nnn(CC(=O)N(C)c3ccccc3)n2)cc1` [Compound 47] and `CCN(C(=O)Cn1nnc(-c2ccccc2)n1)c1ccc(OC)cc1` [Compound 59] are within 1.5-fold of each other in EC50: 1250 nM for the first, 1360 nM for the second.

`COc1ccc(N(C)C(=O)Cn2nnc(-c3cccc(OC)c3)n2)cc1` [Compound 48] and `COc1ccc(N(C)C(=S)Cn2nnc(-c3cccc(OC)c3)n2)cc1` [Compound 67] are within 1.5-fold of each other in EC50: 43 nM for the first, 41 nM for the second.

`COc1cccc(-c2nnn(CC(=O)N(C)c3ccc(F)cc3)n2)c1` [Compound 49] and `COc1ccc(N(C)C(=O)Cn2nnc(-c3cccc(F)c3)n2)cc1` [Compound 50] are within 1.5-fold of each other in EC50: 44 nM for the first, 36 nM for the second.

`CN(C(=O)Cn1nnc(-c2cccc(F)c2)n1)c1ccc(F)cc1` [Compound 51] and `CN(C(=S)Cn1nnc(-c2cccc(F)c2)n1)c1ccc(F)cc1` [Compound 70] are within 1.5-fold of each other in EC50: 49 nM for the first, 33 nM for the second.

`COc1cccc(-c2nnn(CC(=O)N(C)c3ccc(F)c(OC)c3)n2)c1` [Compound 53] and `COc1cccc(-c2nnn(CC(=O)N(C)c3ccc4c(c3)OCO4)n2)c1` [Compound 54] are within 1.5-fold of each other in EC50: 51 nM for the first, 48 nM for the second.

Going from `CN(C(=O)Cn1nnc(-c2cc(F)cc(F)c2)n1)c1ccc(F)cc1` [Compound 57] to `COc1cccc(-c2nnn(CC(=S)N(C)c3ccc(F)cc3)n2)c1` [Compound 68], the EC50 rises from 15 nM to 31 nM (2.1-fold).

Compared with `CCN(C(=O)Cn1nnc(-c2ccccc2)n1)c1ccc(F)cc1` [Compound 60], `CCN(C(=O)Cn1nnc(-c2ccccc2)n1)c1ccc(OC(F)(F)F)cc1` [Compound 61] is 58-fold higher in EC50: 768 nM for the first, 44200 nM for the second.

Compared with `CCN(C(=O)Cn1nnc(-c2ccc(OC)cc2)n1)c1ccc(OC)cc1` [Compound 62], `CCN(C(=O)Cn1nnc(-c2ccc(OC(F)(F)F)cc2)n1)c1ccc(F)cc1` [Compound 63] is 2.6-fold lower in EC50: 2680 nM for the first, 1050 nM for the second.

Going from `CCCN(C(=O)Cn1nnc(-c2ccccc2)n1)c1ccccc1` [Compound 66] to `COc1ccc(N(C)C(=S)Cn2nnc(-c3cccc(F)c3)n2)cc1` [Compound 69], the EC50 falls from 39500 nM to 39 nM (1000-fold).
